Ten compounds from PubChem BioAssay (NCI) can be followed below.

Molecules are shown by their SMILES.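 Dose response: 5 concentrations. Exposure: 48 h. Format: 96-well plates. Endpoint: linear interpolation; highest concentration if not reached. TGI marks complete inhibition of growth.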

Common to all, as to experiment: growth of human tumour cells (NCI), 48 h
Assay [1] has as its system HS 578T breast.
Assay [2] deals with HOP-62 NSCLC.
Assay [3] has as its system SN12C renal.
Assay [4] has as its system DU-145 prostate.
Assay [5] deals with OVCAR-3 ovarian.
The test system of assay [6] is NCI-H460 lung.
The test system of assay [7] is HCT-116 colon.
Assay [8] deals with T-47D breast.
The subject of assay [9] is SK-MEL-5 melanoma.
Assay [10] relates to TK-10 renal.
Assay [11] relates to EKVX NSCLC.
In assay [12] the test system is OVCAR-8 ovarian.
Assay [13] has as its system SW-620 colon.
Assay [14] deals with SF-539 CNS.
Assay [15] deals with UACC-257 melanoma.

On to `O=C1CN(C(=O)C2CCCN2C(=O)C2CCCN2)C(=O)CN1` (stereo not given), for which the TGI in [1], in assay [2], in assay [3], in [4], in assay [5] and in assay [6] was above 100 µM each time. The TGI in assay [7], in assay [8], in [9], in assay [10], in assay [11] and in [12] was above 100 µM in each case. This compound displayed a TGI in [13] above 100 µM.

In the case of `CN(C)/N=C(/CC(O)(C(F)(F)F)C(F)(F)F)c1ccc([N+](=O)[O-])cc1`, the TGI in assay [1], in assay [2], in assay [3], in assay [4], in assay [5] and in assay [6] was above 100 µM in each case. Moreover, the TGI in [7], in assay [8], in assay [9], in assay [14], in assay [11] and in assay [12] was above 100 µM each time. Also, the TGI in assay [13] and in assay [15] was above 100 µM throughout.

Regarding `Cc1cc(C)c2c(O)c(S(=O)(=O)c3ccc(Cl)cc3)c(=O)oc2c1`, the TGI in assay [1], in assay [2], in assay [3], in [4], in assay [5] and in assay [6] was above 100 µM each time. The TGI in [7] is above 100 µM; in assay [8], above 100 µM; in assay [9], above 100 µM; in [14] it was above 100 µM; in assay [11], 93 µM; in assay [12], above 100 µM. Moreover, the TGI in assay [13] and in assay [15] was above 100 µM throughout.

For the compound `Cc1c(C)c(C)n(C2OC(CO)C(O)C(O)C2O)c(=S)c1C#N` (stereo not given), the TGI in [2], in assay [3], in assay [4], in [5], in [6] and in assay [7] was above 100 µM in each case. For the same compound, the TGI in assay [8], in assay [9], in assay [14], in [10], in assay [11] and in assay [12] was above 100 µM each time. The TGI in assay [13] and in assay [15] was above 100 µM each time.

Regarding `CC(C)(C)/C(=N\Nc1nc2ccccc2[nH]1)c1ccccn1`, the TGI is above 100 µM in assay [1]; above 100 µM in [2]; above 100 µM in assay [3]; above 100 µM in assay [4]; 73.3 µM in assay [5]; above 100 µM in assay [6]. The TGI in assay [7] is 78 µM; in assay [8], above 100 µM; in [9], above 100 µM; in assay [14], above 100 µM; in assay [10], 67.8 µM; in [12], above 100 µM. For the same compound, the TGI in assay [13] and in assay [15] was above 100 µM each time.

Take `Cc1ccc(/C(Cl)=C/C=C(C#N)C#N)cc1`: the TGI is 5.58 µM in assay [1]; 3.88 µM in assay [2]; 17.4 µM in assay [3]; 23.9 µM in assay [4]; 3.91 µM in [5]; above 100 µM in assay [6]. Besides, the TGI in assay [8] is above 100 µM; in assay [9], 4.01 µM; in assay [14], 6.37 µM; in assay [10], 13.2 µM; in assay [11], 27.5 µM; in assay [12] it was 8.67 µM. For the same compound, the TGI in [13] was 3.71 µM; in assay [15], 6.31 µM.

Turning to `Clc1ccccc1-c1nc2ccc(C34CC5CC(CC(C5)C3)C4)cc2[nH]1`, the TGI in [1] is 89.9 µM; in assay [2], 34.9 µM; in assay [3], 88.5 µM; in assay [4] it was above 100 µM; in assay [6], above 100 µM; in [7], above 100 µM. Further, the TGI in [8] was 27.8 µM; in assay [9] it was above 100 µM; in [10], 64.6 µM; in assay [11], above 100 µM; in assay [12] it was 22.8 µM; in assay [13] it was above 100 µM. This compound had a TGI in assay [15] above 100 µM.

As to `c1ccc2c(c1)CC1=C(O2)c2ccccc2OC1`, the TGI was above 100 µM in assay [2]; 37.4 µM in [3]; above 100 µM in assay [4]; 48.7 µM in [5]; 30.6 µM in [7]; 67.9 µM in assay [8]. In addition, the TGI in assay [9] is 44.3 µM; in assay [14], 71.6 µM; in assay [10] it was 94.3 µM; in assay [11] it was 45.7 µM; in [12] it was above 100 µM; in assay [13] it was 42.2 µM. Further, the TGI in [15] is above 100 µM.

For the compound `CO/C(N)=C(\C#N)N=Cc1ccco1`, the TGI in [1], in [2], in [3], in assay [4], in assay [5] and in assay [7] was above 100 µM in each case. Also, the TGI in assay [8], in [9], in assay [10], in assay [11], in [12] and in assay [13] was above 100 µM each time. In assay [15], this compound gave a TGI above 100 µM.

As to `COc1cc(/C=N\N(C)C)cc(/C=N/N(C)C)c1O`, the TGI was 20.9 µM in [1]; above 100 µM in [2]; 52.7 µM in assay [3]; above 100 µM in assay [4]; 53.4 µM in [5]; above 100 µM in assay [6]. Further, the TGI in assay [7] was above 100 µM; in assay [8], 15.2 µM; in assay [9] it was above 100 µM; in [14], 37.1 µM; in assay [10], above 100 µM; in assay [13], above 100 µM. This compound had a TGI in assay [15] of 98.5 µM.
